Assay results reported in US10253007B2, “Taxanes compounds, preparation method therefor, and uses thereof” (Jiangsu Tasly Diyi Pharmaceutical Co., Ltd., priority 2013, dated 2019).

What was measured:
[1] = MTT assay, proliferation inhibition; assay type: cell-based; details: Homo sapiens, LN-18 gastric cancer, read-out: Proliferation inhibition rate
From the text: (§1) 1. Cytotoxicity Assay Using Human Tumor Cell Lines
(§2) Paclitaxel was used as the positive drug.

A2780 ovarian cancer = assay: MTT assay, proliferation inhibition; assay type: cell-based; details: Homo sapiens, read-out: Proliferation inhibition rate
From the text: as §1, §2

A375 melanoma = assay: MTT assay, proliferation inhibition; assay type: cell-based; details: Homo sapiens, A-375, read-out: Proliferation inhibition rate
From the text: as §1, §2

[2] = tested on: A549 non-small cell lung cancer; assay: MTT assay, proliferation inhibition; assay type: cell-based; details: Homo sapiens, read-out: Proliferation inhibition rate
From the text: as §1, §2

B16 melanoma = assay: MTT assay, proliferation inhibition; assay type: cell-based; details: read-out: Proliferation inhibition rate
From the text: as §1, §2

BGC-823 gastric cancer = assay: MTT assay, proliferation inhibition; assay type: cell-based; details: Homo sapiens, read-out: Proliferation inhibition rate
From the text: as §1, §2

DU145 prostate cancer = assay: MTT assay, proliferation inhibition; assay type: cell-based; details: Homo sapiens, DU-145, read-out: Proliferation inhibition rate
From the text: as §1, §2

HCT 116 colon cancer = assay: MTT assay, proliferation inhibition; assay type: cell-based; details: Homo sapiens, read-out: Proliferation inhibition rate
From the text: as §1, §2

HL60 leukemia = assay: MTT assay, proliferation inhibition; assay type: cell-based; details: Homo sapiens, HL-60, read-out: Proliferation inhibition rate
From the text: as §1, §2

HT29 colon cancer = assay: MTT assay, proliferation inhibition; assay type: cell-based; details: Homo sapiens, HT-29, read-out: Proliferation inhibition rate
From the text: as §1, §2

HeLa cervical cancer = assay: MTT assay, proliferation inhibition; assay type: cell-based; details: Homo sapiens, read-out: Proliferation inhibition rate
From the text: as §1, §2

K562 leukemia = assay: MTT assay, proliferation inhibition; assay type: cell-based; details: Homo sapiens, read-out: Proliferation inhibition rate
From the text: as §1, §2

LNCaP prostate cancer = assay: MTT assay, proliferation inhibition; assay type: cell-based; details: Homo sapiens, read-out: Proliferation inhibition rate
From the text: as §1, §2

MCF-7 breast cancer = assay: MTT assay, proliferation inhibition; assay type: cell-based; details: Homo sapiens, MCF7, read-out: Proliferation inhibition rate
From the text: as §1, §2

MDA-MB-436 breast cancer = assay: MTT assay, proliferation inhibition; assay type: cell-based; details: Homo sapiens, read-out: Proliferation inhibition rate
From the text: as §1, §2

[3] = tested on: NCI-H460 non-small cell lung cancer; assay: MTT assay, proliferation inhibition; assay type: cell-based; details: Homo sapiens, read-out: Proliferation inhibition rate
From the text: as §1, §2

[4] = Caco-2 cell monolayer membrane transport assay; details: human, A-B; for Papp A→B: Caco-2, Papp A-B; for recovery: Caco-2, Recovery rate in mass
From the text: Caco-2 Cell Monolayer Membrane Transport Assay
Human-derived colorectal adenocarcinoma cell line Caco-2 cell monolayer model was used to study the bidirectional transport of the target compounds from the apical (AP) side to the basolateral (BL) side and from BL side to AP side. HPLC was used for quantitative analysis to calculate transport parameters, apparent permeability coefficient (Papp) and the efflux ratio.

[5] = tested on: breast cancer cell line MCF-7; assay: IC50 values on breast cancer cell line MCF-7; assay type: cell-based; details: Homo sapiens, MCF7, 72 h, read-out: MCF-7(IC50, nM)
From the text: From the activity evaluation data of the above-mentioned preliminary screen, it can be seen that the series of taxanes derivatives synthesized in the present invention have activity (although the activity of PCMI-43 is weakened). Afterward, most of the compounds are picked up from these derivatives to examine their IC50 values on breast cancer cell line MCF-7. Paclitaxel is used as the positive control drug. Experiments for each compound were independently repeated for three times and multiple holes were used in each experiment. The exposure time of drugs was 72 hours.

[6] = Mean, Caco-2, mean of two samples

SMILES | inhibition at 1 µM [1] [%] | inhibition at 1 µM (A2780 ovarian cancer) [%] | inhibition at 1 µM (A375 melanoma) [%] | inhibition at 1 µM [2] [%] | inhibition at 1 µM (B16 melanoma) [%] | inhibition at 1 µM (BGC-823 gastric cancer) [%] | inhibition at 1 µM (DU145 prostate cancer) [%] | inhibition at 1 µM (HCT 116 colon cancer) [%] | inhibition at 1 µM (HL60 leukemia) [%] | inhibition at 1 µM (HT29 colon cancer) [%] | inhibition at 1 µM (HeLa cervical cancer) [%] | inhibition at 1 µM (K562 leukemia) [%] | inhibition at 1 µM (LNCaP prostate cancer) [%] | inhibition at 1 µM (MCF-7 breast cancer) [%] | inhibition at 1 µM (MDA-MB-436 breast cancer) [%] | inhibition at 1 µM [3] [%] | Papp A→B ([4]; Sample-01, Caco-2, Sample-01) [×10⁻⁶ cm/s] | Papp A→B ([4]; Sample-02, Caco-2, Sample-02) [×10⁻⁶ cm/s] | recovery [4, 6] [%] | recovery ([4]; Sample-01, Caco-2, Sample-01) [%] | other results
CO[C@H]1C[C@H]2OC[C@@]2(OC(C)=O)[C@H]2[C@H](OC(=O)c3ccccc3)[C@]3(O)C[C@H](OC(=O)[C@H](O)[C@@H](NC(=O)c4ccccc4)c4ccccc4)C(C)=C([C@@H](OC(=O)N(C)C)C(=O)[C@]12C)C3(C)C [PCMI-23] | 96.3 | 94.8 | 87.7 | 77.8 | 80.8 | 94.5 | 84.8 | 78.3 | 97.2 | 87.9 | 99.8 | 93.8 | 81.8 | 93.5 | 84.8 | 83.3 | 3.21 | 2.68 | 87.1 | 100 | recovery ([4]; Sample-02, Caco-2, Sample-02): 74%
CO[C@H]1C[C@H]2OC[C@@]2(OC(C)=O)[C@H]2[C@H](OC(=O)c3ccccc3)[C@]3(O)C[C@H](OC(=O)[C@H](O)[C@@H](NC(=O)OC(C)(C)C)c4ccccn4)C(C)=C([C@@H](OC(=O)N(C)C)C(=O)[C@]12C)C3(C)C [PCMI-24] | 94 | 95.5 | 86.8 | 73.8 | 78.9 | 93.5 | 84.7 | 81.1 | 98.1 | 88.1 | 100 | 92.2 | 81.1 | 82.3 | 76.3 | 83.6 | 2.93 | 3.1 | 100 | 106 | recovery ([4]; Sample-02, Caco-2, Sample-02): 94.8%
COC(=O)O[C@H]1C(=O)[C@]2(C)[C@@H](OC)C[C@H]3OC[C@@]3(OC(C)=O)[C@H]2[C@H](OC(=O)c2ccccc2)[C@]2(O)C[C@H](OC(=O)[C@H](O)[C@@H](NC(=O)c3ccccc3)c3ccccc3)C(C)=C1C2(C)C [PCMI-27] | 96.3 | 94.1 | 103 | 74.8 | 79.2 | 94.1 | 83.3 | 78.3 | 97.4 | 87.3 | 99.5 | 94.5 | 82.6 | 95.3 | 83.3 | 80.4 | 4.44 | 4.31 | 95.6 | 99.3 | recovery ([4]; Sample-02, Caco-2, Sample-02): 91.9%
COC(=O)O[C@H]1C(=O)[C@]2(C)[C@@H](OC)C[C@H]3OC[C@@]3(OC(C)=O)[C@H]2[C@H](OC(=O)c2ccccc2)[C@]2(O)C[C@H](OC(=O)[C@H](O)[C@@H](NC(=O)N(C)C)c3ccccc3)C(C)=C1C2(C)C [PCMI-29] | 97.7 | 92.5 | 92.8 | 78.1 | 80.6 | 90.8 | 86.7 | 68.7 | 96.8 | 81.7 | 97.3 | 90.8 | 84.3 | 91.3 | 75.7 | 85.2 | 9.53 | 7.33 | 99.4 | 102 | Papp A→B [4, 6]: 8.43 ×10⁻⁶ cm/s; recovery ([4]; Sample-02, Caco-2, Sample-02): 97%
CCSC(=O)O[C@H]1C(=O)[C@]2(C)[C@@H](OC)C[C@H]3OC[C@@]3(OC(C)=O)[C@H]2[C@H](OC(=O)c2ccccc2)[C@]2(O)C[C@H](OC(=O)[C@H](O)[C@@H](NC(=O)OC(C)(C)C)c3ccccc3)C(C)=C1C2(C)C [PCMI-30] | 95 | 95.6 | 96.9 | 75.8 | 81.7 | 94.9 | 90.3 | 65.5 | 98.5 | 87.8 | 101 | 92.6 | 86.2 | 95.8 | 81.3 | 85.8 | 5.78 | 3.59 | 76.5 | 70.4 | Papp A→B [4, 6]: 4.68 ×10⁻⁶ cm/s; recovery ([4]; Sample-02, Caco-2, Sample-02): 82.6%
CO[C@H]1C(=O)[C@]2(C)[C@@H](OC(=O)N(C)C)C[C@H]3OC[C@@]3(OC(C)=O)[C@H]2[C@H](OC(=O)c2ccccc2)[C@]2(O)C[C@H](OC(=O)[C@H](O)[C@@H](NC(=O)c3ccccc3)c3ccccc3)C(C)=C1C2(C)C [PCMI-32] | 92.2 | 95.8 | 90.4 | 74.5 | 77.8 | 95.1 | 87.5 | 57.7 | 97.8 | 89.8 | 103 | 91 | 83.4 | 102 | 74.4 | 86.6 | 3.16 | 3.38 | 81.9 | 82.1 | IC50 [5]: 64.67 ± 0.18 nM; recovery ([4]; Sample-02, Caco-2, Sample-02): 81.6%
CO[C@H]1C(=O)[C@]2(C)[C@@H](OC(=O)N(C)C)C[C@H]3OC[C@@]3(OC(C)=O)[C@H]2[C@H](OC(=O)c2ccccc2)[C@]2(O)C[C@H](OC(=O)[C@H](O)[C@@H](NC(=O)OC(C)(C)C)c3ccccn3)C(C)=C1C2(C)C [PCMI-33] | 93.2 | 94.7 | 90.3 | 74.1 | 81.8 | 94.1 | 86.3 | 56 | 97.8 | 89.1 | 103 | 91.1 | 83.6 | 83.5 | 76.2 | 87.8 | 4.27 | 4.54 | 94.9 | 95.8 | IC50 [5]: 46.63 ± 0.14 nM; recovery ([4]; Sample-02, Caco-2, Sample-02): 94%
COC(=O)O[C@H]1C[C@H]2OC[C@@]2(OC(C)=O)[C@H]2[C@H](OC(=O)c3ccccc3)[C@]3(O)C[C@H](OC(=O)[C@H](O)[C@@H](NC(=O)c4ccccc4)c4ccccc4)C(C)=C([C@@H](OC)C(=O)[C@]12C)C3(C)C [PCMI-37] | 98.3 | 96.4 | 97.4 | 80 | 85.3 | 95.7 | 88.5 | 67.4 | 97 | 89.7 | 102 | 94.5 | 85.5 | 103 | 86.1 | 89.5 | 3.23 | 3.41 | 80.6 | 81.2 | recovery ([4]; Sample-02, Caco-2, Sample-02): 80%
COC(=O)O[C@H]1C[C@H]2OC[C@@]2(OC(C)=O)[C@H]2[C@H](OC(=O)c3ccccc3)[C@]3(O)C[C@H](OC(=O)[C@H](O)[C@@H](NC(=O)OC(C)(C)C)c4ccccn4)C(C)=C([C@@H](OC)C(=O)[C@]12C)C3(C)C [PCMI-38] | 96.6 | 96.5 | 88.3 | 80.3 | 83.3 | 95.7 | 89.2 | 64 | 97.4 | 89.8 | 102 | 94.7 | 82.4 | 106 | 85.9 | 88.7 | 4.71 | 4.35 | 121 | 122 | recovery ([4]; Sample-02, Caco-2, Sample-02): 120%
